Experimental data as given in the supplement of paper PMC10290057.

System: HCT116
Assay: efficacy (fitted maximal change in viability relative to DMSO control); higher = less cytotoxic (negative = loss of viability)
Settings: 48 h
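Note: Luminescence-based viability readout, five doses per compound, normalized against on-plate DMSO and empty-well controls, followed by dose-response curve fitting for every drug.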

N#Cc1ccc(NC(=O)Nc2ccccc2Br)c2nn[nH]c12
efficacy: -26%

CC(C)(C(=O)NCC(F)(F)C(F)(F)F)C(=O)N[C@@H]1C(=O)Nc2ccccc2-c2ccccc21
efficacy: -10.6%

CC(C)(C)C(=O)Oc1ccc2c(c1)nc(NC(=O)c1cccc([N+](=O)[O-])c1)n2CCCO
efficacy: -19.1%

CC(C)(N[S+](=O)([O-])c1ccc2c(Cl)cnc(NC(=N)N)c2c1)C(=O)O
efficacy: -7.17%

CC(C)(O)c1coc([S+](=O)([O-])NC(=O)Nc2c3c(cc4c2CCC4)CCC3)c1
efficacy: 7.83%

CC(C)(O)CCc1ccc(OCc2cc(-c3cccc(OC(F)F)c3)c3ncccc3c2)cc1
efficacy: -82%

CC(C)c1c2cc(-c3ccnc(N[C@H]4CC[C@H](NC5CCOCC5)CC4)n3)ccc2nn1C
efficacy: -72.3%

CC(C)n1cc(-c2ccc3c(c2)N(C)CC3)c2c(N[S+](=O)([O-])c3ccn(C)n3)ccnc21
efficacy: -24.7%

Cc1nc2cc(C(=O)N3CCC4(CC3)CC(=O)c3c(cnn3C(C)C)C4)ccc2[nH]1
efficacy: -35.5%

Cc1noc(-c2ccc(CSCCC(=O)O)cc2)c1NC(=O)OC(C)c1ccccc1Cl (configuration not stated)
efficacy: -36.3%

Cc1cnc(-c2cc(N3CCN(C(=O)CC[S+](C)(=O)[O-])CC3)ncc2Cl)c(C)c1
efficacy: -93.8%

Cc1cc(SCc2sc(-c3ccc(C(F)(F)F)cc3)nc2C)ccc1OCC(=O)O
efficacy: -13.6%

Cc1cc2c(cc1C1(c3ccc(C(=O)O)cn3)CC1)C(C)(C)CCC2(C)C
efficacy: -25.8%

CC1=CC=CC=C1N2\C(=N/C3=C(C(=CC=C3)C)C2=O)C[N]4C=NC5=C4N=CN=C5N
efficacy: -13.6%

Cc1ccnc(N[S+](=O)([O-])c2ccc(NC(=O)Nc3ccc([S+](=O)([O-])Nc4nccc(C)n4)cc3)cc2)n1
efficacy: -21.3%

Cc1c(Cn2c(C)nc3c(C(=O)O)cc(N4CCOCC4)cc32)cccc1C(F)(F)F
efficacy: -10.9%

Cc1n[nH]c2ncc(C(=O)N3CCC[C@H]3c3ccc(Cl)cc3)cc12
efficacy: -17.4%

CC1COC2(CCN(CC2)C/3=N/C(=O)C4=CC(=CC(=C4S3)[N+]([O-])=O)C(F)(F)F)O1 (configuration not stated)
efficacy: -19.7%

CCC(C)N(C)C(=O)c1cc2ccccc2c(-c2ccccc2Cl)n1 (configuration not stated)
efficacy: -46.4%

CCc1c(C(=O)NNC(=O)[C@@H](O)c2cc(F)cc(F)c2)ccc(O)c1C
efficacy: -5.46%

CCc1ccc(/C=C2/SC(=S)NC2=O)cc1
efficacy: -29%

CCN(CC)C(=O)Cc1csc(N[S+](=O)([O-])c2cccc(Cl)c2C)n1
efficacy: -27.3%

CCN([C@H]1CC[C@@H](CC1)N(C)CCOC)C2=C(C)C(=CC(=C2)C#CCN3CCOCC3)C(=O)NC\C4=C(C)\C=C(\C)NC4=O
efficacy: -10.4%

CCOC(=O)C(C)OC1=CC=CC2=C1\C=C/N(CC(=O)NC3=CC=C4OCCOC4=C3)C2=O (configuration not stated)
efficacy: -19.6%

CCn1c(C(=O)N(C2CC2)C2CC2)cc2c3c(ncn3C)c(Nc3cc(C)n(C)n3)nc21
efficacy: -25.7%

Cc1cnc(NC(=O)c2cc(Oc3cnc(C(=O)N(C)C)nc3)c3cc(C)oc3c2)cn1
efficacy: -6.07%

CN(C)C(=O)[C@H](O)[C@H](Cc1ccccc1)NC(=O)c1cc2cc(Cl)ccc2[nH]1
efficacy: -14.2%

Cc1ccc(NC(=O)c2cccc(N(C)C)c2)cc1NC(=O)c1ccc(O)cc1
efficacy: -21.6%

CN(C)CCNC(=O)NC[C@H]1CC[C@@H]2[C@H](O1)c1cc(C(F)(F)F)ccc1N[C@H]2c1ccccc1
efficacy: -63.4%

Cc1cn2cc(C(=O)N(C)CCO)cc(N[C@@H]3CCOc4cccc(C)c43)c2n1
efficacy: -27.6%

CN(CCOc1ccc(-c2ccc3c(c2)OCO3)cc1C(C)(C)C)CC(=O)O
efficacy: -58.3%

CN1C(=O)N(c2cc(Cl)cc(Cl)c2)C(=O)[C@]12CN(Cc1cc(C(=O)O)cs1)C[C@H]2c1ccc(C#N)cc1
efficacy: -6.34%

CN1CCN(c2ccc([N+](=O)[O-])c3no[n+]([O-])c23)CC1
efficacy: -19.8%

CN1CCN(CC1)C\2=C\3/C=C(/C)SC3=N/C4=CC=CC=C4N2
efficacy: -17.1%

CN1CCN(CCCNc2ncc(Cl)c(-c3cc4c(C(=O)NC5CC5)cccc4s3)n2)CC1
efficacy: -28.8%

COC(=O)N(CC(=O)O)Cc1cccc(OCc2nc(-c3ccc(Cl)cc3)oc2C)c1
efficacy: -8.59%

COC1(C[S+]([O-])c2ccccc2)CCN(CCc2c[nH]c3ccc(F)cc23)CC1 (configuration not stated)
efficacy: -18.2%

COC1=C(OC)C=C2C(=CC=NC2=C1)OC3=CC=C(NC(=O)\C4=C\N(C(C)C)C(=O)N(C4=O)C5=CC=C(F)C=C5)C=C3F
efficacy: -13.9%

COc1cc(NC(=O)c2ccc(-c3ccc(Cl)cc3)o2)cc(OC)c1
efficacy: -43.9%

COc1ccc([S+](=O)([O-])NCc2ccc(C(=O)NCCc3ccc(Cl)cn3)cc2)cc1
efficacy: -62.6%

COc1ccc(Cc2ccc(NC(N)=O)cc2)cc1-c1cccc(Cl)c1
efficacy: -74.8%

COc1ccc(CCC(=O)Nc2nc3ccc(Cl)cc3s2)cc1OC
efficacy: -14.1%

COc1ccc(COc2cc3oc(=O)c4cc(C(C)O)ccc4c3cc2OC)cc1 (configuration not stated)
efficacy: -22%

COc1ccc2cc(OCC3(C(=O)O)CN(C(=O)c4ccc(F)cc4)C3)ccc2c1
efficacy: -11.6%

C=C[C@H]1CN2CC[C@H]1C[C@H]2[C@H](O)c1ccnc2ccc(OC)cc12
efficacy: -34.1%

COc1nccc(-c2c(-c3ccc(F)cc3)ncn2C2CCC(O)CC2)n1 (configuration not stated)
efficacy: -34.5%

COc1nccc(-c2c(-c3ccc(F)cc3)ncn2C2CCNCC2)n1
efficacy: -39.7%

C=CC(=O)N[C@H]1CN(c2nc(Nc3cn(C)nc3OC)c3ncn(C)c3n2)C[C@@H]1F
efficacy: -68%

COC1CCC(C(=O)c2ccc3nc4c(cc3c2)CCCO4)CC1 (configuration not stated)
efficacy: -17.2%

COC[C@@H](c1ccc(C(F)(F)F)cc1)N1CCN(C2(C)CCN(C(=O)c3c(C)ncnc3C)CC2)C[C@@H]1C
efficacy: -15.4%

CONC(=O)c1ccccc1Nc1cc(Nc2cc(C)nn2C(C)C)ncc1Cl
efficacy: -40.7%

CO[C@H]1CC[C@]2(CC1)CC3=C(C=C(C=C3)C4=CN=CC(=C4)C#CC)[C@@]2/5\N=C(C)/C(=N5)N
efficacy: -11.3%

C[C@H](c1ccc(F)cc1CCCC(=O)O)N(c1cc(F)ccc1F)[S+](=O)([O-])c1ccc(Cl)cc1
efficacy: -30.3%

Cc1noc(-c2ccc(-c3ccc(C4(C(=O)O)CC4)cc3)cc2)c1NC(=O)O[C@H](C)c1ccccc1
efficacy: -40.6%

C[C@H](NC(=O)Cc1cc(F)cc(F)c1)C(=O)N[C@@H]1C(=O)N(C)c2ccccc2-c2ccccc21
efficacy: -23.7%

C=CC(=O)N1C[C@H](Nc2ncnc3[nH]ccc23)CC[C@@H]1C
efficacy: -26.7%

C[C@](Cc1c[nH]c2ccccc12)(NC(=O)OC1C2CC3CC(C2)CC1C3)C(=O)NC[C@H](NC(=O)CCC(=O)O)c1ccccc1 (some centres not stated)
efficacy: 9.82%

C[C@@]1(C(=O)Nc2ccc(F)nc2)CCCN1c1nc(Nc2cc(C3CC3)[nH]n2)c2cccn2n1
efficacy: -59.3%

Cn1cc(/C=C2\C(=O)Nc3cccnc32)c2ccccc21
efficacy: -35.8%

Cn1cc(-c2ccc3c(c2)CCN3C(=O)Cc2cccc(C(F)(F)F)c2)c2c(N)ncnc21
efficacy: -17.9%

Cn1cc(-c2ccc(-c3cncc(Cl)c3N3CCC4(CCNC4=O)CC3)cc2)cn1
efficacy: -49.2%

Cn1cc(-c2c[nH]c3ncnc(N4CCOCC4)c23)cn1
efficacy: -31.9%

Cn1ccc2cc3c(cc21)CCN3C(=O)Nc1cccnc1
efficacy: -22.8%

Clc1cccc(-n2nnnc2NCc2ccccc2Oc2ccccn2)c1Cl
efficacy: -32%

O=C(N[C@H]1CN2CCC1CC2)c1ccc(Cl)cc1
efficacy: -55.8%

O=C(Nc1ccc2c(c1)CCN(Cc1ncn[nH]1)C2)c1ccccc1-c1ccc(C(F)(F)F)cc1
efficacy: 17.5%

O=C1NC(=O)/C(=C/c2ccc3c(c2)OC(F)(F)O3)S1
efficacy: -22.5%

O=C1NC(=O)/C(=C\c2ccc(-c3ccc(F)cc3)o2)S1
efficacy: -23.2%

O=C(Nc1cccnc1)c1cc(-c2ccnc(F)c2)ccc1OCc1ccccc1
efficacy: -24.6%

N#CN1CCC[C@@H](n2nc(-c3ccc(Oc4ccc(F)cc4F)cc3)c(C(N)=O)c2N)C1
efficacy: -38.1%

NC(=O)c1cccc(N)c1
efficacy: -10.2%

NC(CC1c2ccccc2Oc2ccccc21)(C(=O)O)C1CC1C(=O)O (configuration not stated)
efficacy: -10.8%

Nc1nccc(-c2c(-c3ccc(F)cc3)ncn2C2CCCCC2)n1
efficacy: -55.4%

Nc1ncnc2c1C(=O)N(c1ccc([C@H]3CC[C@H](CC(=O)O)CC3)cc1)CCO2
efficacy: -5.95%

Nc1nc(OC(c2ccc(-c3cccc(F)c3)cc2)C(F)(F)F)cc(-c2ccc(C[C@H](N)C(=O)O)cc2)n1 (some centres not stated)
efficacy: -21.2%

O=C(NC1CCOCC1)c1ccc(-c2cc(-c3c[nH]nc3-c3ccccn3)ccn2)cc1
efficacy: -24%

O=C1NC(=O)/C(=C/c2ccc3nccnc3c2)S1
efficacy: -27.3%

O=C1\C=C(/OC2=C1C=CC=C2C3=CC=CC=C3)N4CCOCC4
efficacy: -24.3%

O=C(O)/C(S)=C/c1ccc(I)cc1
efficacy: -6.45%

O=C(O)c1ccc(CN2CCC(CN[C@@H]3C[C@H]3c3ccccc3)CC2)cc1
efficacy: -14.1%

O=C(Nc1ccccc1)Nc1ccc(-c2ccc(C(=O)[C@@H]3CCC[C@H]3C(=O)O)cc2)cc1
efficacy: -8.51%

O=[S+]([O-])(O)c1ccc2cc(/N=N/c3cc([S+](=O)([O-])O)c4cccnc4c3O)ccc2c1
efficacy: -23.5%

O=C1NC(=O)/C(=C/c2ccc(-c3ccc(F)cc3O)o2)S1
efficacy: -29.8%

O=C(NOCCO)c1cc(CN2OCCCC2=O)c(F)c(F)c1Nc1ccc(I)cc1F
efficacy: -60.6%

O=C(NC[C@H](O)CN1CCc2ccccc2C1)c1cc(NC2COC2)ncn1
efficacy: 13%

c1cc(-c2sc(-c3ccncc3)c(-c3ccncc3)c2-c2ccncc2)ccn1
efficacy: -13.8%

O=C1Cc2cc(C(=O)NC3C[C@H]4CC[C@@H](C3)N4[S+](=O)([O-])CC3CCN(CCCC(F)(F)F)CC3)c(Cl)cc2N1 (some centres not stated)
efficacy: -9.6%
